Results taken from patent US11839613B2, “Pyrimidine derivatives as PGE2 receptor modulators” (IDORSIA PHARMACEUTICALS LTD, priority 2017, dated 2023).

Experiments:
Type in all cases: cell-based
PTGER2 (EP2) = PTGER2 (EP2) (Homo sapiens (Human), UniProt P43116); assay: hEP2 b-arrestin assay (PathHunter HEK 293 PTGER2 b-arrestin cells); conditions: antagonistic activity, beta-arrestin assay; read-out: hEP2 b-arr IC50
Protocol: Plate is pre-incubated 15 minutes at 37° C. Then five microliters of PGE2 (final conc. 5 μM) are transferred into the assay plate. Plate is incubated 120 minutes at 37° C.
(each concentration is measured in duplicate)

EP4 = EP4 (Homo sapiens (Human), UniProt P35408); assay: hEP4 cAMP assay (BT549 breast cancer cells, HTRF cAMP); conditions: antagonistic activity, PGE2 6 nM
Text: (§1) Human tumor cell lines expressing endogenously either EP4 or EP2 are used and cAMP accumulation in cells upon PGE2 stimulation is monitored. SF295 glioblastoma cells express high endogenous EP2 and no EP4, whereas BT549 breast cancer cells, express high endogenous EP4 levels and very low EP2 levels.
(§2) As a detection method for cAMP the HTRF (homogeneous time resolved fluorescence) Cisbio kit (HTRF cAMP dynamic 2 kit 20'000 tests Cisbio Cat. #62AM4PEC) was used, which is based on a competitive immunoassay using a Cryptate-labeled anti-cAMP antibody and d2-labeled cAMP. Native cAMP produced by cells or unlabeled cAMP (for the standard curve) compete with exogenously added d2-labeled cAMP (acceptor) for binding to monoclonal anti-cAMP-Eu3+Cryptate (donor). A FRET signal (Fluorescence Resonance Energy Transfer) is obtained only if the labeled anti-cAMP antibody binds the d2 labelled cAMP, thus the specific signal (i.e. energy transfer) is inversely proportional to the concentration of cAMP in the standard or sample.
(§3) Cells are counted washed and resuspended in assay buffer (AB; HBSS, 20 mM HEPES, 0.2% BSA; 2 mM IBMX).
Plate is pre-incubated 45 minutes at RT. Subsequently, 2.5 microliters of PGE2 (final conc. 6 nM) are transferred into the assay plate. Plate is incubated 30 minutes at RT.

EP2 = EP2 (Homo sapiens (Human), UniProt P43116); assay: hEP2 cAMP assay (SF295 glioblastoma cells, HTRF cAMP); conditions: antagonistic activity
Text: as §1, §2, §3
Plate is pre-incubated 45 minutes at RT. […] Plate is incubated 30 minutes at RT.

Chain of PTGER2 (EP2) (P43116 whole entry): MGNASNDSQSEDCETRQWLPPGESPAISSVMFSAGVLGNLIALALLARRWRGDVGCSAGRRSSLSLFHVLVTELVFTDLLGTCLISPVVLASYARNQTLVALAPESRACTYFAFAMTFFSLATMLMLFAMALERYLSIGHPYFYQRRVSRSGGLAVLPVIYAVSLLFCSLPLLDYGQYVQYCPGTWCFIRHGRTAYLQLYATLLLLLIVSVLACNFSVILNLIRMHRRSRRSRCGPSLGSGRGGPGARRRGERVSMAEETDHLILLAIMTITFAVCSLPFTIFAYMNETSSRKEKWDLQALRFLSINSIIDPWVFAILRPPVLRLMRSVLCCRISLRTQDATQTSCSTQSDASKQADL
Chain of EP2 (P43116 whole entry): as above
Chain of EP4 (P35408 whole entry): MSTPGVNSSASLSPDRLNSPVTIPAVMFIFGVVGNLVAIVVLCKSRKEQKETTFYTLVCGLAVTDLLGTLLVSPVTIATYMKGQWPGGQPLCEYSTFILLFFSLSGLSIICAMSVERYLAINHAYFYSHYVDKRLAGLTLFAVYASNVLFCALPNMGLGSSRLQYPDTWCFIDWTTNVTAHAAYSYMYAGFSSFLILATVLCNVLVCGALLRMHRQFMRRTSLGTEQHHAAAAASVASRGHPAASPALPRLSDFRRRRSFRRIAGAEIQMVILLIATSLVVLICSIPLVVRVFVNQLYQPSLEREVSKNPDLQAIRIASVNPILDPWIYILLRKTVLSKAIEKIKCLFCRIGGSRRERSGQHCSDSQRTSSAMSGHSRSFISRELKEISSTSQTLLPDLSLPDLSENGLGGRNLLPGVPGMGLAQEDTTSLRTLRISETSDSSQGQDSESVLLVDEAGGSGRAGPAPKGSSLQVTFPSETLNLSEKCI

Structure (SMILES)	IC50 (PTGER2 (EP2))	IC50 (EP4)	IC50 (EP2)
Cc1cc2c(cc1CCNc1cc(-c3ccc(C(=O)O)c(OC4CCC4)c3)ncn1)OC=CO2 [Ex 288]	156 nM	523 nM	85 nM
COc1cc2cc(F)oc2cc1CCNc1cc(-c2ccc(C(=O)O)c(OC3CCC3)c2)ncn1 [Ex 280]	–	491 nM	514 nM
CCOc1cc(-c2cc(NCCc3cc4c(cnn4C)cc3OC)ncn2)ccc1OCC(=O)O [Ex 298]	–	613 nM	716 nM
NC(=O)c1ccc(-c2cc(NCCc3ccc4cc[nH]c4c3)ncn2)s1 [Ex 294, 5-{6-[2-(1H-Indol-6-yl)-ethylamino]-pyrimidin-4-yl}-thiophene-2-carboxylic acid amide]	–	561 nM	786 nM
CCOc1cc(-c2cc(NCCc3cc4c(cc3OC)OCCO4)ncn2)ccc1C(=O)O [Ex 286]	198 nM	515 nM	86 nM
CCOc1cc(-c2cc(NCCc3cc(Cl)c4c(c3)OCCO4)ncn2)ccc1C(=O)O [Ex 324]	–	858 nM	899 nM
O=C(O)c1ccc(-c2cc(NCCc3c(F)cc4ncccc4c3F)ncn2)cc1OC1CCC1 [Ex 228]	392 nM	300 nM	194 nM
COc1cc2c(cc1CCNc1cc(-c3ccc(C(=O)O)c(OC4CCC4)c3)ncn1)OCO2 [Ex 213, 2-Cyclobutoxy-4-{6-[2-(6-methoxy-benzo[1,3]dioxol-5-yl)-ethylamino]-pyrimidin-4-yl}-benzoic acid]	59 nM	256 nM	46 nM
O=C(O)c1ccc(-c2cc(NCCc3ccc4[nH]ccc4c3)ncn2)cc1OC1CCC1 [Ex 322, 2-Cyclobutoxy-4-{6-[2-(1H-indol-5-yl)-ethylamino]-pyrimidin-4-yl}-benzoic acid]	–	814 nM	809 nM
c1nc(NCCc2ccc3cc[nH]c3c2)cc(-c2ccc3[nH]ccc3c2)n1 [Ex 226, [2-(1H-Indol-6-yl)-ethyl]-[6-(1H-indol-5-yl)-pyrimidin-4-yl]-amine]	151 nM	291 nM	250 nM
COc1cc(-c2cc(NCCc3cc4cccnc4cc3F)ncn2)sc1C1(O)COC1 [Ex 283]	–	502 nM	618 nM
O=C(O)c1ccc(-c2cc(NCCc3ccc4c(c3)OCCC4)ncn2)cc1OC1CCC1 [Ex 265, 4-[6-(2-Chroman-7-yl-ethylamino)-pyrimidin-4-yl]-2-cyclobutoxy-benzoic acid]	–	428 nM	11400 nM
CCOc1cc(-c2cc(NCCc3cc4ccoc4cc3F)ncn2)ccc1OC(C)C(=O)O (centres unmarked) [Ex 236]	121 nM	327 nM	147 nM
Oc1c(F)cc(-c2cc(NCCc3ccc4cc[nH]c4c3)ncn2)cc1F [Ex 307, 2,6-Difluoro-4-{6-[2-(1H-indol-6-yl)-ethylamino]-pyrimidin-4-yl}-phenol]	–	658 nM	677 nM
CCOc1cc(-c2cc(NCCc3ccc4sccc4c3)ncn2)ccc1OC(C)(C)C(=O)O [Ex 321]	–	772 nM	562 nM
c1nc(NCCc2ccc3cc[nH]c3c2)cc(-c2ccc3cc[nH]c3c2)n1 [Ex 267, [2-(1H-Indol-6-yl)-ethyl]-[6-(1H-indol-6-yl)-pyrimidin-4-yl]-amine]	–	431 nM	306 nM
O=C(O)c1ccc(-c2cc(NCCc3cc(Cl)c4c(c3)OCCO4)ncn2)cc1OC1CCC1 [Ex 246]	–	364 nM	534 nM
NC(=O)c1ccc(-c2cc(NCCc3c(F)cc4ncccc4c3F)ncn2)s1 [Example 356, 5-{6-[2-(5,7-Difluoro-quinolin-6-yl)-ethylamino]-pyrimidin-4-yl}-thiophene-2-carboxylic acid amide]	–	828 nM	2340 nM
COc1cc(-c2cc(NCCc3ccc4sccc4c3)ncn2)cc(OC)c1C(=O)O [Ex 320, 4-[6-(2-Benzo[b]thiophen-5-yl-ethylamino)-pyrimidin-4-yl]-2,6-dimethoxy-benzoic acid]	–	766 nM	440 nM
CCOc1cc(-c2cc(NCCc3ccc4c(c3)OCCC4)ncn2)ccc1C(=O)O [Ex 309, 4-[6-(2-Chroman-7-yl-ethylamino)-pyrimidin-4-yl]-2-ethoxy-benzoic acid]	–	677 nM	> 27700 nM
CCOc1cc(-c2cc(NCCc3cc4c(cc3OC)OCCO4)ncn2)ccc1OC(C)(C)C(=O)O [Ex 313]	–	691 nM	273 nM
CCOc1cc(-c2cc(NCCc3ccc4[nH]ccc4c3)ncn2)ccc1OCC(=O)O [Ex 225, (2-Ethoxy-4-{6-[2-(1H-indol-5-yl)-ethylamino]-pyrimidin-4-yl}-phenoxy)-acetic acid]	–	289 nM	923 nM

The remaining lines, values ahead:

IC50 (PTGER2 (EP2))	IC50 (EP4)	IC50 (EP2)	Structure (SMILES)
–	325 nM	772 nM	Cc1c(CCNc2cc(-c3ccc(C(=O)O)c(OC4CCC4)c3)ncn2)ccc2cccnc12 [Ex 235]
113 nM	283 nM	141 nM	CCOc1cc(-c2cc(NCCc3ccc4ccccc4c3C)ncn2)ccc1-c1noc(O)n1 [Ex 220]
8 nM	285 nM	2 nM	CCOc1cc(-c2cc(NCCc3c(OC)cc4occc4c3C)ncn2)ccc1C(=O)O [Ex 221, 2-Ethoxy-4-{6-[2-(6-methoxy-4-methyl-benzofuran-5-yl)-ethylamino]-pyrimidin-4-yl}-benzoic acid]
67 nM	468 nM	102 nM	CCSc1cc(-c2cc(NCCc3cc4ccoc4cc3F)ncn2)ccc1C(=O)O [Ex 275]
–	729 nM	792 nM	CCOc1cc(-c2cc(NCCc3ccc4ccccc4c3C)ncn2)sc1CC(=O)OC [Ex 316]
–	520 nM	384 nM	Cc1c(CCNc2cc(-c3ccc(-c4nc(O)no4)cc3)ncn2)ccc2ccccc12 [Ex 302]
–	626 nM	425 nM	CCOc1cc(-c2cc(NCCc3cc4cccnc4c(F)c3Cl)ncn2)ccc1OCC(=O)O [Ex 301]
55 nM	343 nM	75 nM	CSc1cc(-c2cc(NCCc3cc4ccoc4cc3F)ncn2)ccc1C(=O)O [Ex 238, 4-{6-[2-(6-Fluoro-benzofuran-5-yl)-ethylamino]-pyrimidin-4-yl}-2-methylsulfanyl-benzoic acid]
–	652 nM	408 nM	CCOc1cc(-c2cc(NCCc3c(F)cc4ncccc4c3F)ncn2)ccc1C(=O)O [Ex 304]
–	394 nM	302 nM	CCOc1cc(-c2cc(NCCc3ccc4cc[nH]c4c3)ncn2)ccc1C(=O)O [Ex 259, 2-Ethoxy-4-{6-[2-(1H-indol-6-yl)-ethylamino]-pyrimidin-4-yl}-benzoic acid]
329 nM	288 nM	199 nM	CCOc1cc(-c2cc(NCCc3ccc4cc[nH]c4c3)ncn2)ccc1OC(C)C(=O)O (centres unmarked) [Ex 223]
–	358 nM	304 nM	CCOc1cc2ccccc2cc1CCNc1cc(-c2ccc(OC(C)(C)C(=O)O)c(OCC)c2)ncn1 [Ex 245]
–	365 nM	797 nM	CCOc1cc(-c2cc(NCCc3cc4ccccc4cc3Cl)ncn2)ccc1OCC(=O)O [Ex 247]
–	624 nM	312 nM	COc1cc2ccccc2cc1CCNc1cc(-c2cc(OC)c(C(=O)O)c(OC)c2)ncn1 [Ex 300]
–	22 nM	66 nM	Cc1c(CCNc2cc(-c3cc(OCCO)c(C(=O)O)s3)ncn2)ccc2ccccc12 [Ex 48]
–	404 nM	880 nM	CCOc1cc(-c2cc(NCCc3ccc4ccccc4c3Cl)ncn2)ccc1C(=O)O [Ex 260]
–	390 nM	3610 nM	CCOc1cc(-c2cc(NCCc3cc4ccccc4cc3OC(C)C)ncn2)ccc1CC(=O)O [Ex 258]
–	252 nM	794 nM	CCOc1cc(-c2cc(NCCc3cc4c(cc3OC)N(C)C(=O)CC4)ncn2)sc1C(=O)O [Ex 210]
–	76 nM	950 nM	CCOc1cc(-c2cc(NCCc3c(F)cc4ccccc4c3F)ncn2)ccc1CC(=O)O [Ex 107]
–	498 nM	296 nM	CCOc1cc(-c2cc(NCCc3cc4ccccc4cc3OC)ncn2)cc(OC)c1C(=O)O [Ex 282]
–	287 nM	279 nM	CCSc1cc(-c2cc(NCCc3ccc4sccc4c3)ncn2)ccc1C(=O)O [Ex 222]
–	439 nM	638 nM	CCOc1cc(-c2cc(NCCc3ccc4cc[nH]c4c3)ncn2)ccc1CC(=O)O [Ex 271]
–	425 nM	524 nM	Cc1c(Cl)c(CCNc2cc(-c3ccc(C(=O)O)c(OC4CCC4)c3)ncn2)cc2cccnc12 [Ex 263]
–	253 nM	571 nM	CCOc1cc(-c2cc(NCCc3cc4ccccc4cc3OC(F)F)ncn2)ccc1C(=O)O [Ex 211]
–	425 nM	11800 nM	CC(C)Oc1cc2ccccc2cc1CCNc1cc(-c2ccc(C(=O)O)c(OC3CCC3)c2)ncn1 [Ex 264]
–	325 nM	113 nM	Cc1c(CCNc2cc(-c3ccc(C(=O)O)c(OCCO)c3)ncn2)ccc2ccccc12 [Ex 234]
